Here are results for nine compounds from patent publication US8133998B2, “Bicyclic pyrimidine derivatives as calcium channel blockers” (Zalicus Pharmaceuticals, Ltd., priority 2007, dated 2012).

In test [1] the test system is T-type over L-type channels. The settings on record: cited from earlier work.
Test [2] deals with spinal nerve ligation model of neuropathic pain. The settings on record: rats; cited from earlier work.
For test [3], the target named is T1, human α1G T-type channels (Homo sapiens, UniProt O43497).
T1 construct: expressed in transfected cells; host or cells: HEK 293
T1 sequence (O43497 whole entry): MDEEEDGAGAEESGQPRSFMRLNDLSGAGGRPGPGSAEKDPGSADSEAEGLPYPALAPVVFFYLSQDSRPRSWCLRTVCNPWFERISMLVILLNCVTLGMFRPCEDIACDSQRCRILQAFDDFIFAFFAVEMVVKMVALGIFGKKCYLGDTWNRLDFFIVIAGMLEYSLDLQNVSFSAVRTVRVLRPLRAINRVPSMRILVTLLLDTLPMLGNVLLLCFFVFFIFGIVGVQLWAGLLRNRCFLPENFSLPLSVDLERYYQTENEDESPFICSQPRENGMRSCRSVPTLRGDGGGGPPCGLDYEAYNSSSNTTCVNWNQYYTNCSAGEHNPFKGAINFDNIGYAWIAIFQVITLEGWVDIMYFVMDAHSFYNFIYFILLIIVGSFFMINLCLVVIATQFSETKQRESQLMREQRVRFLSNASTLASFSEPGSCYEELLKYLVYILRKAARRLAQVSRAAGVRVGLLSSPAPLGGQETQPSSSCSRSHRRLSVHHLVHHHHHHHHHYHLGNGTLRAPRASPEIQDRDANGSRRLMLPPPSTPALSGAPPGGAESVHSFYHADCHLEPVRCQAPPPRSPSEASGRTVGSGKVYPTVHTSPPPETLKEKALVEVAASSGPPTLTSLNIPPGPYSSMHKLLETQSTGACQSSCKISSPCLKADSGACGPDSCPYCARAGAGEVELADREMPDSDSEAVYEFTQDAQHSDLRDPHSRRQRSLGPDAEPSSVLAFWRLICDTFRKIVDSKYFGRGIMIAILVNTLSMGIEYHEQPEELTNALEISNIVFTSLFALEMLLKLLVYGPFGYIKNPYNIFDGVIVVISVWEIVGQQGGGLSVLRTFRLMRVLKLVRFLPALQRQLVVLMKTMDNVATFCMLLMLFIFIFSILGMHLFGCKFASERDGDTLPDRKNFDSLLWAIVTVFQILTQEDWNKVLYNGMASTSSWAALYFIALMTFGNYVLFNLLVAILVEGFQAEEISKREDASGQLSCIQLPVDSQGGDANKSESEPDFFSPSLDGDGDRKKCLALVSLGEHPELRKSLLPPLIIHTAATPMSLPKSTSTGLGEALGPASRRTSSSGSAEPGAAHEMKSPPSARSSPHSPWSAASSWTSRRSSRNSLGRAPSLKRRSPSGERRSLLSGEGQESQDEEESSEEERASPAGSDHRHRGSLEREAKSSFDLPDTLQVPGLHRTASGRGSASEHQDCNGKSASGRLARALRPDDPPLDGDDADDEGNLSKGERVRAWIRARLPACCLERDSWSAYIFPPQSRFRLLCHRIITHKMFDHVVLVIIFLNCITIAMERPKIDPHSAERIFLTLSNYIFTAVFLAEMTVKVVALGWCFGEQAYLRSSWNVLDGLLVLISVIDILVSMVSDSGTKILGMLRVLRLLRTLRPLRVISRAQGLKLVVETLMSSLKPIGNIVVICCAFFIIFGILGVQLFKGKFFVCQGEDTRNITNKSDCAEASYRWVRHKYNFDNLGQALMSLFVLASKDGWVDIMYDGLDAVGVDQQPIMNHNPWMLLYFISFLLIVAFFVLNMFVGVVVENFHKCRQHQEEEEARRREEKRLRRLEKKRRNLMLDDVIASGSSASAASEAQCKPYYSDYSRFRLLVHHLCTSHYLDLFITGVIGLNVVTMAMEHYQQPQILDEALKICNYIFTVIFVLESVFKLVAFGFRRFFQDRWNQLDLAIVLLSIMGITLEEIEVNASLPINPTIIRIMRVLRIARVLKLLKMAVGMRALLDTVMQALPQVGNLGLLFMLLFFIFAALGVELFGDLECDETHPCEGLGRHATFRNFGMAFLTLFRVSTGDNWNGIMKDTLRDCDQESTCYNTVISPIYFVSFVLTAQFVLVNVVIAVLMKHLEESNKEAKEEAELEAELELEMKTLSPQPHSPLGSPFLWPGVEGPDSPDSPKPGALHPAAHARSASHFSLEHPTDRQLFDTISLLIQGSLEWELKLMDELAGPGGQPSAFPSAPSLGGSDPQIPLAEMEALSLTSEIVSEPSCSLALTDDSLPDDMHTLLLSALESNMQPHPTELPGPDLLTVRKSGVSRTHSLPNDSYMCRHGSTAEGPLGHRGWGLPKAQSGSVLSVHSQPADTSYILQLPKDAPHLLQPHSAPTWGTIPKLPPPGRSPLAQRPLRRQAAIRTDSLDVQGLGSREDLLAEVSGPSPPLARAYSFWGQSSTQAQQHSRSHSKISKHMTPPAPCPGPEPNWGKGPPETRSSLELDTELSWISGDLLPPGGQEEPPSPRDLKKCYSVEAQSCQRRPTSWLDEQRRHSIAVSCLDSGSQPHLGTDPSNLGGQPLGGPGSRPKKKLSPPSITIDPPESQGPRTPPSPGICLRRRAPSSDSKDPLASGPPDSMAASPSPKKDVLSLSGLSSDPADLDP
Description: T-type calcium channel block, whole cell patch clamp in HEK cells. In kind it is cell-based. The following applies: HEK cells stably expressing human α1G; measured at 1 μM drug; mainly non-inactivated protocol. The method, boiled down:
(§1)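 Whole-cell patch clamp on HEK293 cells stably expressing the channel; holding −110 mV, 1-s prepulse −100 mV (resting block) or ~−85 mV (inactivated), test pulse −40 mV for 50 ms. Compounds in external solution with 0.1–0.01% DMSO, gravity-applied; Kd from block at 1 μM or 200 nM.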

Test [4] deals with T2, human α1I T-type channels (Homo sapiens, UniProt Q9P0X4).
T2 construct: expressed in transfected cells; host or cells: HEK 293
T2 sequence (Q9P0X4 whole entry): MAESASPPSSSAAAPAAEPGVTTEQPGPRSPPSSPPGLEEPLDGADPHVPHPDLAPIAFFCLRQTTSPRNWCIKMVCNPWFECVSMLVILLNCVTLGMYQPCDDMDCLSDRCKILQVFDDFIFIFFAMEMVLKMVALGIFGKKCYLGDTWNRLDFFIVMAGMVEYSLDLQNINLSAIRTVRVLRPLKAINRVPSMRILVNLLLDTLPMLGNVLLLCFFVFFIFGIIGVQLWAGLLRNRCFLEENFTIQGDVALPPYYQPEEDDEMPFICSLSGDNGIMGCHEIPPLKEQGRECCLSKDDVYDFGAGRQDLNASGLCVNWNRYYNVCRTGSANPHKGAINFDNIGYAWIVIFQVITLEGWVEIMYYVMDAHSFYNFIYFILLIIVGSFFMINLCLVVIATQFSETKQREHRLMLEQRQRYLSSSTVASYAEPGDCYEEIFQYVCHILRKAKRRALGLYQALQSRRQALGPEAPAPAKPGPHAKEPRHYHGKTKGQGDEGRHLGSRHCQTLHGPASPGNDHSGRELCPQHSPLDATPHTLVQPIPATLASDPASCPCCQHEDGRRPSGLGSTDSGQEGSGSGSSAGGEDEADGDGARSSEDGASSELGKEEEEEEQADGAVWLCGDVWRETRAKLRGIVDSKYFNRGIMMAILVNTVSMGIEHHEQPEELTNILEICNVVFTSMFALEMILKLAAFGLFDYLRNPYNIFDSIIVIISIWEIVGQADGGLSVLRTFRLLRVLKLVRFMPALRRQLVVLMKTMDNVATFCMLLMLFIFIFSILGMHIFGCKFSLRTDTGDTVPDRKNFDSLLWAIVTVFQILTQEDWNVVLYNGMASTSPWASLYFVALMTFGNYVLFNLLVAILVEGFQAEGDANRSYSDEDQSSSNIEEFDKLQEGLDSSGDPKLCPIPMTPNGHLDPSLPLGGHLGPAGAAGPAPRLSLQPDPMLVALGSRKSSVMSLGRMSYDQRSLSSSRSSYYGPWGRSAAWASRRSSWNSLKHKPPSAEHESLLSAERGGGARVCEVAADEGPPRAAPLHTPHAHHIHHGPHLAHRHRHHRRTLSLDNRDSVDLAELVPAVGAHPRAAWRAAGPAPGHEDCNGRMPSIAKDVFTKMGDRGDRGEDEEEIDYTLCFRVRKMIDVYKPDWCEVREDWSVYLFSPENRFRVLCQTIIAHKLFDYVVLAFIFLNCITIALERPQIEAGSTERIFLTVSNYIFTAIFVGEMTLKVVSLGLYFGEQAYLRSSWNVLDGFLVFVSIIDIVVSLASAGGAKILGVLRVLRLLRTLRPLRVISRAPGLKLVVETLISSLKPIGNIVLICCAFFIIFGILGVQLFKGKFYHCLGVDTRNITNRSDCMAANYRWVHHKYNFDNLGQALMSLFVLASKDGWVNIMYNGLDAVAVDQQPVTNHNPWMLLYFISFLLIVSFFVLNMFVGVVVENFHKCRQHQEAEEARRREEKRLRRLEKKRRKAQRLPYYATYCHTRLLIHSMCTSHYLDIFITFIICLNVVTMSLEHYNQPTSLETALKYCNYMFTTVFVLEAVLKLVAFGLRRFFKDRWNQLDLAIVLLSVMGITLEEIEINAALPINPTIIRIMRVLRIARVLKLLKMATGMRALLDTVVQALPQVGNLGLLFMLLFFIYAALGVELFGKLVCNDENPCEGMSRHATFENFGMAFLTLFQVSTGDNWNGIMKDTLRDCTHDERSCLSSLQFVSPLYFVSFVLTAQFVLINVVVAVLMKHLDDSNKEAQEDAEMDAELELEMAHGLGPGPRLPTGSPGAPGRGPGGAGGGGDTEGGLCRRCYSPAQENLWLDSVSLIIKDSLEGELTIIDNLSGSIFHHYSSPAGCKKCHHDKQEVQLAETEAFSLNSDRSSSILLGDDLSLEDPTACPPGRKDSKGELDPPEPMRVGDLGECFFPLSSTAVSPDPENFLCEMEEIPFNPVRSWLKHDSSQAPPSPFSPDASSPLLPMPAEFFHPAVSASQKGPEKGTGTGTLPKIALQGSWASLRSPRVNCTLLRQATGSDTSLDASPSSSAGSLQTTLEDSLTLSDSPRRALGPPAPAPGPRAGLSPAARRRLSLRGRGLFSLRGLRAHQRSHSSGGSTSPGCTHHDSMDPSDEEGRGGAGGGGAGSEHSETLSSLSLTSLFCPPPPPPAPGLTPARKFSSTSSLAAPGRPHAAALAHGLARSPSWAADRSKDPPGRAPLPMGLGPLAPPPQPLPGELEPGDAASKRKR
The test is described as above. The following applies: HEK cells stably expressing human α1I; measured at 1 μM drug; mainly non-inactivated protocol. In kind it is cell-based. A digest of the protocol:
as §1

Test [5] has as its target T3, human α1H T-type channels (Homo sapiens, UniProt O95180).
T3 construct: expressed in transfected cells; host or cells: HEK 293
The test is described as above. In kind it is cell-based. The settings on record: HEK cells stably expressing human α1H; measured at 1 μM drug; mainly non-inactivated protocol. A digest of the protocol:
as §1

`COCC(=O)O[C@]1(CCN(C)CCCc2nc3ccccc3[nH]2)CCc2cc(F)ccc2[C@@H]1C(C)C` [Mibefradil]: the “selective for T-type over L-type channels” value in test [1] is recorded as 10-30 fold. For the same compound, the “anti-hyperalgesic activity in the spinal nerve ligation model of neuropathic pain” value in test [2] is recorded as “anti-hyperalgesic activity”.

For the compound `CCC1(C)CC(=O)NC1=O` (stereo not drawn) [ethosuximide], the “anti-hyperalgesic activity in the spinal nerve ligation model of neuropathic pain” value in test [2] is on record as “anti-hyperalgesic activity”.

Regarding `Cc1c(C(=O)N2CCN(c3ccccc3)CC2)sc2ncn(C(C)C(=O)NC3CCCCC3)c(=O)c12` (stereo not drawn) [Compound 33, N-cyclohexyl-2-(5-methyl-4-oxo-6-(4-phenylpiperazine-1-carbonyl)thieno[2,3-d]pyrimidin-3(4H)-yl)propanamide], the Kd in test [3] stood at 16500 nM; in test [4], 5130 nM; in test [5], 350 nM.

Turning to `Cc1c(C(=O)N2CCN(c3ccc(Cl)c(C(F)(F)F)c3)CC2)sc2ncn(CC(=O)NC3CCCC3)c(=O)c12` [Compound 38, 2-(6-(4-(4-chloro-3-(trifluoromethyl)phenyl)piperazine-1-carbonyl)-5-methyl-4-oxothieno[2,3-d]pyrimidin-3(4H)-yl)-N-cyclopentylacetamide], the Kd in test [3] stood at 100 nM; in test [4], 2140 nM; in test [5], 100 nM.

As to `Cc1c(C(=O)N2CCCCC2)sc2ncn(CC(=O)Nc3cc(C(F)(F)F)cc(C(F)(F)F)c3)c(=O)c12` [Compound 69, N-(3,5-bis(trifluoromethyl)phenyl)-2-(5-methyl-4-oxo-6-(piperidine-1-carbonyl)thieno[2,3-d]pyrimidin-3(4H)-yl)acetamide], the results for the Kd in test [3], in test [4] and in test [5] were 230 nM, 710 nM and 2730 nM, respectively.

As for `Cc1c(C(=O)N2CCN(c3ccccc3F)CC2)sc2ncn(CC(=O)Nc3cccc(C(F)(F)F)c3)c(=O)c12` [Compound 62, 2-(6-(4-(2-fluorophenyl)piperazine-1-carbonyl)-5-methyl-4-oxothieno[2,3-d]pyrimidin-3(4H)-yl)-N-(3-(trifluoromethyl)phenyl)acetamide], the figures for the Kd in test [3], in test [4] and in test [5] were 290 nM, 340 nM and 800 nM, respectively.

Take `Cc1c(C(=O)N2CCN(c3cccc(Cl)c3)CC2)sc2ncn(CC(=O)Nc3ccc(F)cc3F)c(=O)c12` [Compound 140, 2-(6-(4-(3-chlorophenyl)piperazine-1-carbonyl)-5-methyl-4-oxothieno[2,3-d]pyrimidin-3(4H)-yl)-N-(2,4 difluorophenyl)acetamide]: the Kd in test [3] was 360 nM; in test [4], 4990 nM; in test [5], 180 nM.

Consider `CCN(CC)C(=O)Cn1cnc2sc(C(=O)N3CCN(c4ccc(Cl)c(Cl)c4)CC3)c(C)c2c1=O` [Compound 6, 2-(6-(4-(3,4-dichlorophenyl)piperazine-1-carbonyl)-5-methyl-4-oxothieno[2,3-d]pyrimidin-3(4H)-yl)-N,N-diethylacetamide], for which the dissociation constant Kd in test [3] was determined as 950 nM; in test [4] it was 9670 nM; in test [5], 340 nM.

In the case of `Cc1c(C(=O)N2CCN(c3ccccc3)CC2)sc2ncn(CC(=O)Nc3cc(F)cc(F)c3)c(=O)c12` [Compound 55, 2-(6-(4-phenylpiperazine-1-carbonyl)-5-methyl-4-oxothieno[2,3-d]pyrimidin-3(4H)-yl)-N-(3,5-difluorophenyl)acetamide], the values for the Kd in test [3], in test [4] and in test [5] were 240 nM, above 950 nM and 380 nM, respectively.

A word on the Kd: it is the concentration at which binding is half-saturated.
